Among the test systems are ACHN renal; LOX IMVI melanoma; CAKI-1 renal; RXF 393 renal; MDA-MB-231 breast; HOP-92 NSCLC; SNB-75 CNS; K-562 leukemia; UO-31 renal.
What all share (test): NCI anticancer screen, dose series, 48 h

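Exposure lasted 48 hours, with cells grown in 96-well plates and compounds tested at five concentrations. Abbreviation: GI50, concentration required for 50% inhibition of growth. Definition used: TGI = concentration required for complete inhibition of growth.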

Regarding `COc1cc2c3c(n(C)c(=O)c2cc1OC)-c1cc2c(cc1/C3=C\CCCCN1C(=O)c3ccccc3C1=O)OCO2`, the GI50 with ACHN renal was 1.8 µM; with LOX IMVI melanoma it was 10.7 µM; with CAKI-1 renal, 0.686 µM; in the assay on RXF 393 renal, 56.5 µM; with MDA-MB-231 breast it was 13.3 µM; with SNB-75 CNS it was 28.5 µM. The GI50 in the assay on K-562 leukemia was 23.4 µM. The TGI in the assay on ACHN renal was 10.9 µM; in the assay with LOX IMVI melanoma, 22.5 µM; in the assay with CAKI-1 renal it was 35.4 µM; with RXF 393 renal, greater than 100 µM; in the assay on MDA-MB-231 breast, 38.3 µM; in the assay with HOP-92 NSCLC it was 7.49 µM. The TGI with SNB-75 CNS and in the assay on K-562 leukemia was greater than 100 µM in each case.
`COc1ccc(-c2cc(Cc3cccs3)c(=O)[nH]n2)cc1`: the TGI in the assay with ACHN renal, in the assay with UO-31 renal, with RXF 393 renal, with HOP-92 NSCLC and with SNB-75 CNS was greater than 100 µM in each case.
As for `CC(=O)Nc1ccc(SC#N)c2c(NC(C)=O)cccc12`, the TGI with ACHN renal is greater than 100 µM; with UO-31 renal, greater than 100 µM; in the assay with LOX IMVI melanoma, greater than 100 µM; in the assay with CAKI-1 renal, greater than 100 µM; in the assay with RXF 393 renal, greater than 100 µM; in the assay with HOP-92 NSCLC, greater than 94.8 µM. Also, the TGI in the assay with SNB-75 CNS and in the assay with K-562 leukemia was greater than 100 µM each time.
`Cc1ccc(-c2nnc(-c3nn(-c4ccccc4)c4nc5ccccc5nc34)o2)cc1`: the TGI worked out at 35.2 µM in the assay with ACHN renal; 39 µM in the assay on UO-31 renal; 40.9 µM in the assay on LOX IMVI melanoma; 26.9 µM with CAKI-1 renal; 20.5 µM in the assay on RXF 393 renal; 20.9 µM in the assay on HOP-92 NSCLC. The TGI came out at 8.3 µM with SNB-75 CNS and 61.9 µM in the assay on K-562 leukemia.
For the molecule `Cc1ccc2c(C3Cc4ccccc4N3C(=O)/C=C\C(=O)O)c(C)[nH]c2c1` (centres undefined), the TGI with ACHN renal was greater than 100 µM; in the assay with UO-31 renal it was greater than 100 µM; in the assay on LOX IMVI melanoma it was greater than 100 µM; with CAKI-1 renal, greater than 100 µM; with RXF 393 renal, 93.8 µM; in the assay on HOP-92 NSCLC it was 84.1 µM. Moreover, the TGI in the assay on SNB-75 CNS was greater than 100 µM; with K-562 leukemia, 73 µM.
Regarding `COc1ccc(C=O)c([N+](=O)[O-])c1`, the TGI with ACHN renal, with UO-31 renal, in the assay with LOX IMVI melanoma, in the assay on RXF 393 renal, in the assay on HOP-92 NSCLC and in the assay on SNB-75 CNS was greater than 100 µM throughout. In the assay with K-562 leukemia, this molecule displayed a TGI of 36 µM.
`CCOC(=O)C1C(=S)NC(=O)C1C#N` (centres undefined): the TGI in the assay on ACHN renal, with UO-31 renal, in the assay with LOX IMVI melanoma, in the assay with CAKI-1 renal, in the assay on RXF 393 renal and in the assay on HOP-92 NSCLC was greater than 100 µM each time. In addition, the TGI in the assay on SNB-75 CNS and in the assay with K-562 leukemia was greater than 100 µM each time.
`COC(=O)C1(C)CCc2c(OC)ccc(OC)c2C1=O` (centres undefined): the TGI with ACHN renal, in the assay with UO-31 renal, in the assay with LOX IMVI melanoma, in the assay on RXF 393 renal, with SNB-75 CNS and in the assay with K-562 leukemia was greater than 100 µM throughout.
As for `COC(=O)C1CC2CC(=NNC(N)=O)CC2C1` (centres undefined), the TGI in the assay on ACHN renal, with UO-31 renal, in the assay on LOX IMVI melanoma, in the assay on CAKI-1 renal, in the assay on RXF 393 renal and with HOP-92 NSCLC was greater than 100 µM throughout. In addition, the TGI in the assay with SNB-75 CNS and with K-562 leukemia was greater than 100 µM each time.
`CO[C@H]1CC(O[C@@H]2/C(C)=C/C[C@@H]3C[C@@H](C[C@]4(C=C[C@H](C)[C@@H](C5CCCCC5)O4)O3)OC(=O)[C@@H]3C=C(C)[C@@H](O)[C@H]4OC/C(=C\C=C\[C@@H]2C)[C@]43O)O[C@@H](C)C1O[C@H]1C[C@H](OC)[C@@H](O)[C@H](C)O1` (some centres undefined): the GI50 with ACHN renal was 1.66 µM; in the assay on UO-31 renal, 1.4 µM; in the assay with CAKI-1 renal it was 1.22 µM; in the assay with RXF 393 renal, 1.18 µM; in the assay on HOP-92 NSCLC, 0.301 µM; in the assay on SNB-75 CNS it was 1.45 µM. The TGI was 3.04 µM with ACHN renal; 2.71 µM with UO-31 renal; 2.73 µM with CAKI-1 renal; 2.46 µM in the assay on RXF 393 renal; 1.89 µM in the assay on HOP-92 NSCLC; 3.6 µM with SNB-75 CNS.
For `CC#CCC1CCC(OCC)=CC1=O` (centres undefined), the TGI in the assay on ACHN renal, in the assay with UO-31 renal, in the assay on LOX IMVI melanoma, with CAKI-1 renal, in the assay on RXF 393 renal and with HOP-92 NSCLC was greater than 100 µM each time. In addition, the TGI in the assay on SNB-75 CNS and in the assay with K-562 leukemia was greater than 100 µM in each case.
On to `O=C1CC(c2c[nH]c3ccccc23)C(=O)N1` (centres undefined), for which the TGI with ACHN renal, with UO-31 renal, with CAKI-1 renal, in the assay on RXF 393 renal, in the assay on SNB-75 CNS and in the assay on K-562 leukemia was greater than 100 µM in each case.
In the case of `N#CC(=C1C=CC(=NO)C=C1)c1ccc(Cl)cc1`, the TGI turned out to be 24.9 µM with ACHN renal; 31.7 µM in the assay on UO-31 renal; 12 µM in the assay on LOX IMVI melanoma; 29 µM in the assay with CAKI-1 renal; 36.5 µM in the assay with RXF 393 renal; 44.8 µM with HOP-92 NSCLC. This molecule also came in with a TGI with SNB-75 CNS greater than 100 µM.
Regarding `COc1cc2c(c(OC)c1OC)-c1ccc(SC)c(=O)cc1C(NC(=O)c1ccccc1)CC2` (centres undefined), the TGI is greater than 63.1 µM in the assay on ACHN renal; greater than 68.1 µM in the assay on UO-31 renal; 62.2 µM in the assay on LOX IMVI melanoma; 48.5 µM in the assay on CAKI-1 renal; 7.88 µM with RXF 393 renal; 1.77 µM in the assay on MDA-MB-231 breast. The TGI in the assay on HOP-92 NSCLC is 3.79 µM; in the assay with SNB-75 CNS, 4.01 µM; in the assay on K-562 leukemia, greater than 68.1 µM.
With `Cc1c(/C=N/N=C/c2[nH]c(C(=O)OC(C)(C)C)c(C)c2C)[nH]c(C(=O)OC(C)(C)C)c1C`, the TGI in the assay on UO-31 renal was greater than 100 µM; in the assay on LOX IMVI melanoma, greater than 100 µM; in the assay with CAKI-1 renal it was greater than 100 µM; in the assay on RXF 393 renal, greater than 100 µM; in the assay on HOP-92 NSCLC, greater than 100 µM; with SNB-75 CNS, 88.1 µM. In the assay on K-562 leukemia, this molecule gave a TGI greater than 100 µM.
As to `O=C(NC1CCCCC1)NS(=O)(=O)c1ccc2c(c1)CCC2`, the TGI in the assay with ACHN renal, with UO-31 renal, in the assay on LOX IMVI melanoma, with RXF 393 renal, in the assay with HOP-92 NSCLC and in the assay on SNB-75 CNS was greater than 100 µM throughout. For the same molecule, the TGI in the assay on K-562 leukemia is greater than 100 µM.

(Values after PubChem BioAssay (NCI).)
